Where “and” joins values, the source holds several entries; their conditions need not be identical. Equal values may be shown once.
What was measured:
Test in all cases: radiometric filter-binding kinase assay, Kinase HotSpot
Conditions in all cases: compound 0.5 µM; ATP 10 µM
[1] = molecular target: WNK3 (human) (UniProt Q9BYP7)
[2] = molecular target: EPHA5 (human) (UniProt P54756)
[3] = molecular target: STK11 (human) (UniProt Q15831)
[4] = molecular target: MAPK12 (human) (UniProt P53778)
[5] = molecular target: CDK9 CCNT1 (human) (UniProt P50750+O60563)
[6] = molecular target: MAPK13 (human) (UniProt O15264)
Chain of MAPK13 (human) (O15264 whole entry, looked up): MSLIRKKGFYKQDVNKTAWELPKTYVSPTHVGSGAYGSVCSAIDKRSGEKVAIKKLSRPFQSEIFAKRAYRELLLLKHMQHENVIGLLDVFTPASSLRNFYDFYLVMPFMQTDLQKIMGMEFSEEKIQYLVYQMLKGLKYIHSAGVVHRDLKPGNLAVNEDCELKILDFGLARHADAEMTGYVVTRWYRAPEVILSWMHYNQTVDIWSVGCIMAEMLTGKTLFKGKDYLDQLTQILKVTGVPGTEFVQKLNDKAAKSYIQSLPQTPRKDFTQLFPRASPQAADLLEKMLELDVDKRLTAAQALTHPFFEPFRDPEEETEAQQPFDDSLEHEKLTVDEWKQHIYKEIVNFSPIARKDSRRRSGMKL

[7] = molecular target: PRKCG (human) (UniProt P05129)
[8] = molecular target: GRK4 (human) (UniProt P32298)
Chain of GRK4 (human) (P32298 whole entry, looked up): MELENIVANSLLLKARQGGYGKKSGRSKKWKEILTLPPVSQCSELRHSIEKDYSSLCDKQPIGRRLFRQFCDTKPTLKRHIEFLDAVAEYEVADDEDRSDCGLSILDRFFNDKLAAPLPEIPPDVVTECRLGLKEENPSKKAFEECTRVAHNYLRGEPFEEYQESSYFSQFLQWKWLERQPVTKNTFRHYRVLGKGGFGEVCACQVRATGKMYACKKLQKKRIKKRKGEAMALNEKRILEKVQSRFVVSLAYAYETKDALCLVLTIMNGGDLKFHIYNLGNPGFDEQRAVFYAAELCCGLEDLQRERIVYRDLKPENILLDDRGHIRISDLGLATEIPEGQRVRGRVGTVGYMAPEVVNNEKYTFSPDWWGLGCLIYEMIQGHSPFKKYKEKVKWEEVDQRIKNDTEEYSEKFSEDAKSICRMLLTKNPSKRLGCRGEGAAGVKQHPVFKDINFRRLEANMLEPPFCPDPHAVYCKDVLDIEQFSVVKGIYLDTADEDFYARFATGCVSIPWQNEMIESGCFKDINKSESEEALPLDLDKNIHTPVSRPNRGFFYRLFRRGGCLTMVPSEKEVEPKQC

[9] = molecular target: PRKACA (human) (UniProt P17612)
[10] = molecular target: NTRK2 (human) (UniProt Q16620)
[11] = molecular target: TGFBR2 (human) (UniProt P37173)
[12] = molecular target: PRKG2 (human) (UniProt Q13237)
[13] = molecular target: CAMK1D (human) (UniProt Q8IU85)
Chain of CAMK1D (human) (Q8IU85 whole entry, looked up): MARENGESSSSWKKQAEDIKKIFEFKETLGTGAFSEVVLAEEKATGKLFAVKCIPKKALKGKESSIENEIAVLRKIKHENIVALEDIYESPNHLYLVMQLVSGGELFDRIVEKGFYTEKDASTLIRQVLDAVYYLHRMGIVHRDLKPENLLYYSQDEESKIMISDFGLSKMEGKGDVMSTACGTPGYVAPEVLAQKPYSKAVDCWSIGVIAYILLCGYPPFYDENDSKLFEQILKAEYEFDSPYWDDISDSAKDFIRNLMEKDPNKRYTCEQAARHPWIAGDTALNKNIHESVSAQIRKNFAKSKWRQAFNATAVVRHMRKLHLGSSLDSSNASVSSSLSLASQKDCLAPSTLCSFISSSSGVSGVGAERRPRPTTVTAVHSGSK

[14] = molecular target: ERBB4 (human) (UniProt Q15303)
[15] = molecular target: CDK5 CDK5R1 p35 (human) (UniProt Q00535+Q15078)
[16] = molecular target: NTRK1 (human) (UniProt P04629)
[17] = molecular target: MAPK3 (human) (UniProt P27361)
[18] = molecular target: PRKG1 (human) (UniProt Q13976)
Chain of PRKG1 (human) (Q13976 whole entry, looked up): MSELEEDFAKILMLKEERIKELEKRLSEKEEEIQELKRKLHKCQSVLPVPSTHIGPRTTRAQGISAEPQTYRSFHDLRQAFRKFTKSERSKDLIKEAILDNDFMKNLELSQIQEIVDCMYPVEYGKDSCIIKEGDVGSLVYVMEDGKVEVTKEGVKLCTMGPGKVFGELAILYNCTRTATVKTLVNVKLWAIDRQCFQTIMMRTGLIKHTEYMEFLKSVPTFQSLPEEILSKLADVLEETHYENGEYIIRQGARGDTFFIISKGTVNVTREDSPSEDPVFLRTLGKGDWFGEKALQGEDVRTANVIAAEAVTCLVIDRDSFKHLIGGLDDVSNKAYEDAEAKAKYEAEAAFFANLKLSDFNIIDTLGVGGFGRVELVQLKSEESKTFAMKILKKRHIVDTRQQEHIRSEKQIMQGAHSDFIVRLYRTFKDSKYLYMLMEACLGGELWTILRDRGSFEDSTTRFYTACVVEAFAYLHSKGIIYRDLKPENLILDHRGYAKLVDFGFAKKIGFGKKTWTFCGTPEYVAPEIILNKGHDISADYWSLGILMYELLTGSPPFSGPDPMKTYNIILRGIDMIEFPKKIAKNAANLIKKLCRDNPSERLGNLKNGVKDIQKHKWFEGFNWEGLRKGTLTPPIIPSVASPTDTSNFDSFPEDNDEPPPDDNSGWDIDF

[19] = molecular target: RAF1 (human) (UniProt P04049)
Chain of RAF1 (human) (P04049 whole entry, looked up): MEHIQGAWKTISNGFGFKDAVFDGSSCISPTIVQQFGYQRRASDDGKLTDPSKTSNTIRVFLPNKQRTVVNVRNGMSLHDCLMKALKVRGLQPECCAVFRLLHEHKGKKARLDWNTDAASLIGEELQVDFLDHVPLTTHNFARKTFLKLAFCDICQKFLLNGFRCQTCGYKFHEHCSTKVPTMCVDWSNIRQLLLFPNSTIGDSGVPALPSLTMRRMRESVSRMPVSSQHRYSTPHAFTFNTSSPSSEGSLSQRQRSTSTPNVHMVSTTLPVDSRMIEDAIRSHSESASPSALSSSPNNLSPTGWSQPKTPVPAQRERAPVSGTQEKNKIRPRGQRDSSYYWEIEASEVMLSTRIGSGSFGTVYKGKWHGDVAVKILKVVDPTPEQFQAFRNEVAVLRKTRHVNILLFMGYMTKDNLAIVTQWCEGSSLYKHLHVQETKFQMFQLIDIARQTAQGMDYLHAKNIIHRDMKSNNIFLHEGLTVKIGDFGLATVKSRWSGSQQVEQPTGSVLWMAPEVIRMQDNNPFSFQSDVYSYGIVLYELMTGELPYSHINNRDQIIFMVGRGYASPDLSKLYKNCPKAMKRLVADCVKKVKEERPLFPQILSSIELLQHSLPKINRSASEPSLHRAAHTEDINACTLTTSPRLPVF

[20] = molecular target: MAPK1 (human) (UniProt P28482)
Chain of MAPK1 (human) (P28482 whole entry, looked up): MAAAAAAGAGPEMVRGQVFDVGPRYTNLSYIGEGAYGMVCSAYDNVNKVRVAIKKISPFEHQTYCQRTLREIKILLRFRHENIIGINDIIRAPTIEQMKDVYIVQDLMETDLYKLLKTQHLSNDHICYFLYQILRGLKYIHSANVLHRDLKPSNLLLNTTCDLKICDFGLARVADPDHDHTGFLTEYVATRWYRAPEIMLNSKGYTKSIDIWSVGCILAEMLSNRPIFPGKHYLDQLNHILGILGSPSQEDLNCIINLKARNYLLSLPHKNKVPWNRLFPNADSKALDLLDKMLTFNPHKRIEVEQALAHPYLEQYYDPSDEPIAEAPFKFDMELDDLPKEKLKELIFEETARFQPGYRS

[21] = molecular target: HIPK3 (human) (UniProt Q9H422)
[22] = molecular target: ULK1 (human) (UniProt O75385)
[23] = molecular target: ADRBK2 (human) (UniProt P35626)
Chain of ADRBK2 (human) (P35626 whole entry, looked up): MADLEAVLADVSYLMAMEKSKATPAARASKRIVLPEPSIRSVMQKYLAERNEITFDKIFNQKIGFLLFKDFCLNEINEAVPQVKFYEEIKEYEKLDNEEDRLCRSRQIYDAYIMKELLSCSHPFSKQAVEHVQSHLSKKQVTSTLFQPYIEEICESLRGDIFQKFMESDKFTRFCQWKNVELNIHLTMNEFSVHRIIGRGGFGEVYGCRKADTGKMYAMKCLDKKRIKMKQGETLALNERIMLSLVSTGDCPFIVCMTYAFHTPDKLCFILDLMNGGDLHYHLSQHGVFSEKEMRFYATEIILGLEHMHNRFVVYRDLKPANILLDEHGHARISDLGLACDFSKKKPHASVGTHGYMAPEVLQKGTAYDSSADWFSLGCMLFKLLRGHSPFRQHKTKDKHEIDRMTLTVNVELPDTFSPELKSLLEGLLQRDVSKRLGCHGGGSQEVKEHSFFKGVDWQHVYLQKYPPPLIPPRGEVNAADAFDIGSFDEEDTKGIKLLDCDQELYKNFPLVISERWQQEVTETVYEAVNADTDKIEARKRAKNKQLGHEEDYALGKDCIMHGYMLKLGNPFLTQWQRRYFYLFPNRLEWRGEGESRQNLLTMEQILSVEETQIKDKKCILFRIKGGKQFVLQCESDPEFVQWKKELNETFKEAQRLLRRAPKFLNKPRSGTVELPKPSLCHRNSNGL

[24] = molecular target: CLK3 (human) (UniProt P49761)
Chain of CLK3 (human) (P49761 whole entry, looked up): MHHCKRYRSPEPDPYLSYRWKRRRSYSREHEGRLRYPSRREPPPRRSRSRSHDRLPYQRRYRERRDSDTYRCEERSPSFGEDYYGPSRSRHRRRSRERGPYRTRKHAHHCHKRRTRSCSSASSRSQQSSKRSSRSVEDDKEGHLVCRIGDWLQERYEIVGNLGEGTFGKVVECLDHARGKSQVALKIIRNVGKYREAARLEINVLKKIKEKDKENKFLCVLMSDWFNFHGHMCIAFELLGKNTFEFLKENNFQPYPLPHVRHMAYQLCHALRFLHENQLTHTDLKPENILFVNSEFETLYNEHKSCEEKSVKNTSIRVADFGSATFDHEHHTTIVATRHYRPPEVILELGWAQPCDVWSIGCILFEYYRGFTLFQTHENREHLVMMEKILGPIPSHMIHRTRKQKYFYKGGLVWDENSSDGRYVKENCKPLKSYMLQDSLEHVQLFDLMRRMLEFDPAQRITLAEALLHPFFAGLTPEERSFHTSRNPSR

[25] = molecular target: MARK4 (human) (UniProt Q96L34)
[26] = molecular target: PRKCE (human) (UniProt Q02156)
[27] = molecular target: PAK3 (human) (UniProt O75914)
Chain of PAK3 (human) (O75914 whole entry, looked up): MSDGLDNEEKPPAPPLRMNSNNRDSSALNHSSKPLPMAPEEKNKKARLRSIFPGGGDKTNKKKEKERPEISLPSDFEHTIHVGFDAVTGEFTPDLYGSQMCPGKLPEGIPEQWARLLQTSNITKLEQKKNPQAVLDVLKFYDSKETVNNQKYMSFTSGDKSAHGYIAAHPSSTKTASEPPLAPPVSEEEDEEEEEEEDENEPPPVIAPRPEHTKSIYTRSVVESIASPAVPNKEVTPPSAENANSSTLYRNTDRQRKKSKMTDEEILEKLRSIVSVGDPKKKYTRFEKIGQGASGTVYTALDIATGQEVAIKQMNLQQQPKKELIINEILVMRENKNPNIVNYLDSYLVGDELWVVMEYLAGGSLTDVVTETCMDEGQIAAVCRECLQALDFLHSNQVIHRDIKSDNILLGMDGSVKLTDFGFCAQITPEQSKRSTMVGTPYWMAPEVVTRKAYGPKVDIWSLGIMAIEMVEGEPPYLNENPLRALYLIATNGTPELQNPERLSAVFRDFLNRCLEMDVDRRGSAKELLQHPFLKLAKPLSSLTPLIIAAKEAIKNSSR

[28] = molecular target: EPHA2 (human) (UniProt P29317)
[29] = molecular target: TSSK1B (human) (UniProt Q9BXA7)
[30] = molecular target: FGFR4 (human) (UniProt P22455)
[31] = molecular target: CHUK (human) (UniProt O15111)
[32] = molecular target: CDC42BPB (human) (UniProt Q9Y5S2)
[33] = molecular target: MAP3K11 (human) (UniProt Q16584)
[34] = molecular target: IKBKB (human) (UniProt O14920)
[35] = molecular target: PKN2 (human) (UniProt Q16513)
[36] = molecular target: CSNK1E (human) (UniProt P49674)
[37] = molecular target: ALK (human) (UniProt Q9UM73)
[38] = molecular target: ROCK2 (human) (UniProt O75116)
[39] = molecular target: NLK (human) (UniProt Q9UBE8)
[40] = molecular target: AKT3 (human) (UniProt Q9Y243)
[41] = molecular target: NTRK3 (human) (UniProt Q16288)
[42] = molecular target: CSNK2A2 (human) (UniProt P19784)

Molecule `CC[n+]1c(/C=C/N(C)c2ccccc2)n(-c2ccccc2)c2ccc(-c3nc4ccccc4s3)cc21` has a residual activity [1] of 85.9%, a residual activity [2] of 100% and a residual activity [3] of 93.1%. It also gave a residual activity [4] of 105%, a residual activity [5] of 89.5% and a residual activity [6] of 102%. The residual activity [7] was 99.4%, the residual activity [8] was 103% and the residual activity [9] was 103%. The residual activity [10] was 97.8%, the residual activity [11] was 95.1% and the residual activity [12] was 92.4%. It also gave a residual activity [13] of 99.7%, a residual activity [14] of 102% and a residual activity [15] of 97.6%. The residual activity [16] was 99.1%, the residual activity [17] was 112% and the residual activity [18] was 104% and 105%. The residual activity [19] was 96.8%, the residual activity [20] was 112% and the residual activity [21] was 105%. It also gave a residual activity [22] of 90.9%, a residual activity [23] of 97.4% and a residual activity [24] of 114%. For the same molecule, the residual activity [25] was 110%, the residual activity [26] was 97.7% and the residual activity [27] was 109%. The residual activity [28] was 100%, the residual activity [29] was 102% and the residual activity [30] was 84.1%. It also gave a residual activity [31] of 86%, a residual activity [32] of 95% and a residual activity [33] of 102%. The residual activity [34] was 98.6%, the residual activity [35] was 79.2% and the residual activity [36] was 105%. For the same molecule, the residual activity [37] was 99.1%, the residual activity [38] was 99.1% and the residual activity [39] was 105%. The residual activity [40] was 109%, the residual activity [41] was 100% and the residual activity [42] was 105%.

With `CCN(CC)C(=O)c1ccc(Nc2nc(OCC3CCCCC3)c3nc[nH]c3n2)cc1` the residual activity [1] was 80.6%, the residual activity [2] was 95% and the residual activity [3] was 85.2%. The residual activity [4] was 99.4%, the residual activity [5] was 88.8% and the residual activity [6] was 95.3%. The residual activity [7] was 94.5%, the residual activity [8] was 93% and the residual activity [9] was 93.7%. It also gave a residual activity [10] of 54.3%, a residual activity [11] of 75.4% and a residual activity [12] of 80%. It also gave a residual activity [13] of 101%, a residual activity [14] of 91% and a residual activity [15] of 77.1%. For the same molecule, the residual activity [16] was 81.4%, the residual activity [17] was 101% and the residual activity [18] was 89.8% and 96.1%. The residual activity [19] was 86.3%, the residual activity [20] was 106% and the residual activity [21] was 96.4%. For the same molecule, the residual activity [22] was 77.7%, the residual activity [23] was 92.7% and the residual activity [24] was 84.1%. It also gave a residual activity [25] of 93.8%, a residual activity [26] of 76.6% and a residual activity [27] of 87.7%. For the same molecule, the residual activity [28] was 90.6%, the residual activity [29] was 15.3% and the residual activity [30] was 94.4%. The residual activity [31] was 103%, the residual activity [32] was 99.3% and the residual activity [33] was 5.55%. For the same molecule, the residual activity [34] was 97.3%, the residual activity [35] was 91.8% and the residual activity [36] was 95.6%. For the same molecule, the residual activity [37] was 74.9%, the residual activity [38] was 39.8% and the residual activity [39] was 94.5%. For the same molecule, the residual activity [40] was 101%, the residual activity [41] was 32.3% and the residual activity [42] was 90.9%.

With `O=c1cc(N2CCOCC2)oc2c1ccc1ccccc12` the residual activity [1] was 97.5%, the residual activity [2] was 110% and the residual activity [3] was 104%. For the same molecule, the residual activity [4] was 97.4%, the residual activity [5] was 99.1% and the residual activity [6] was 99.8%. It also gave a residual activity [7] of 101%, a residual activity [8] of 104% and a residual activity [9] of 102%. For the same molecule, the residual activity [10] was 94%, the residual activity [11] was 122% and the residual activity [12] was 102%. The residual activity [13] was 91.1%, the residual activity [14] was 101% and the residual activity [15] was 96.7%. For the same molecule, the residual activity [16] was 96.4%, the residual activity [17] was 106% and the residual activity [18] was 84.5% and 94.6%. For the same molecule, the residual activity [19] was 97.9%, the residual activity [20] was 104% and the residual activity [21] was 107%. It also gave a residual activity [22] of 96.1%, a residual activity [23] of 102% and a residual activity [24] of 81.1%. It also gave a residual activity [25] of 102%, a residual activity [26] of 89.6% and a residual activity [27] of 102%. The residual activity [28] was 110%, the residual activity [29] was 101% and the residual activity [30] was 108%. It also gave a residual activity [31] of 93.4%, a residual activity [32] of 98.3% and a residual activity [33] of 99.2%. For the same molecule, the residual activity [34] was 105%, the residual activity [35] was 93.2% and the residual activity [36] was 92.5%. For the same molecule, the residual activity [37] was 104%, the residual activity [38] was 95.9% and the residual activity [39] was 103%. For the same molecule, the residual activity [40] was 98.3%, the residual activity [41] was 103% and the residual activity [42] was 78.6%.

Molecule `Cc1ccc(S(=O)(=O)/C=C/C#N)cc1` has a residual activity [1] of 110%, a residual activity [2] of 111% and a residual activity [3] of 91.1%. For the same molecule, the residual activity [4] was 90.5%, the residual activity [5] was 98.2% and the residual activity [6] was 92.2%. For the same molecule, the residual activity [7] was 92.9%, the residual activity [8] was 96.8% and the residual activity [9] was 100%. The residual activity [10] was 98.5%, the residual activity [11] was 97.9% and the residual activity [12] was 102%. It also gave a residual activity [13] of 108%, a residual activity [14] of 99.7% and a residual activity [15] of 97%. The residual activity [16] was 90.1%, the residual activity [17] was 98.2% and the residual activity [18] was 95.8% and 96.7%. The residual activity [19] was 104%, the residual activity [20] was 100% and the residual activity [21] was 100%. The residual activity [22] was 102%, the residual activity [23] was 99.1% and the residual activity [24] was 106%. It also gave a residual activity [25] of 99%, a residual activity [26] of 106% and a residual activity [27] of 105%. For the same molecule, the residual activity [28] was 105%, the residual activity [29] was 97.4% and the residual activity [30] was 94.3%. The residual activity [31] was 87.3%, the residual activity [32] was 96.4% and the residual activity [33] was 98.2%. The residual activity [34] was 110%, the residual activity [35] was 81.5% and the residual activity [36] was 107%. For the same molecule, the residual activity [37] was 103%, the residual activity [38] was 99.1% and the residual activity [39] was 99.2%. The residual activity [40] was 93.7%, the residual activity [41] was 95.5% and the residual activity [42] was 97.9%.

Reference: the kinase profiling compilation of Christmann-Franck et al. (2016)
